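Method: 48-hour compound exposure of cells in 96-well plates, five concentrations, linear interpolation of endpoints. At the GI50, growth is halved. Definition used: TGI = concentration required for complete inhibition of growth.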
What was measured:
Assay in all cases: inhibition of tumour cell growth, NCI panel, 48 h; in the data active = GI50 below about 0.43 µM; inactive = the rest
786-0 renal = test system: 786-0 renal
A498 renal = test system: A498 renal
A549 NSCLC = test system: A549 NSCLC
ACHN renal = test system: ACHN renal
BT-549 breast = test system: BT-549 breast
CAKI-1 renal = test system: CAKI-1 renal
CCRF-CEM leukemia = test system: CCRF-CEM leukemia
COLO 205 colon = test system: COLO 205 colon
DU-145 prostate = test system: DU-145 prostate
EKVX NSCLC = test system: EKVX NSCLC
HCC-2998 colon = test system: HCC-2998 colon
HCT-116 colon = test system: HCT-116 colon
HCT-15 colon = test system: HCT-15 colon
HL-60(TB) leukemia = test system: HL-60(TB) leukemia
HOP-62 NSCLC = test system: HOP-62 NSCLC
HOP-92 NSCLC = test system: HOP-92 NSCLC
HS 578T breast = test system: HS 578T breast
HT29 colon = test system: HT29 colon
IGROV1 ovarian = test system: IGROV1 ovarian
K-562 leukemia = test system: K-562 leukemia
KM12 colon = test system: KM12 colon
LOX IMVI melanoma = test system: LOX IMVI melanoma
M14 melanoma = test system: M14 melanoma
MCF7 breast = test system: MCF7 breast
MDA-MB-231 breast = test system: MDA-MB-231 breast
MDA-MB-435 = test system: MDA-MB-435
MOLT-4 leukemia = test system: MOLT-4 leukemia
NCI-H226 lung = test system: NCI-H226 lung
NCI-H23 lung = test system: NCI-H23 lung
NCI-H460 lung = test system: NCI-H460 lung
NCI-H522 lung = test system: NCI-H522 lung
NCI/ADR-RES ovarian = test system: NCI/ADR-RES ovarian
OVCAR-3 ovarian = test system: OVCAR-3 ovarian
OVCAR-4 ovarian = test system: OVCAR-4 ovarian
OVCAR-5 ovarian = test system: OVCAR-5 ovarian
OVCAR-8 ovarian = test system: OVCAR-8 ovarian
PC-3 prostate = test system: PC-3 prostate
RPMI-8226 leukemia = test system: RPMI-8226 leukemia
RXF 393 renal = test system: RXF 393 renal
SF-268 CNS = test system: SF-268 CNS
SF-295 CNS = test system: SF-295 CNS
SF-539 CNS = test system: SF-539 CNS
SK-MEL-2 melanoma = test system: SK-MEL-2 melanoma
SK-MEL-28 melanoma = test system: SK-MEL-28 melanoma
SK-MEL-5 melanoma = test system: SK-MEL-5 melanoma
SK-OV-3 ovarian = test system: SK-OV-3 ovarian
SN12C renal = test system: SN12C renal
SNB-19 CNS = test system: SNB-19 CNS
SNB-75 CNS = test system: SNB-75 CNS
SR leukemia = test system: SR leukemia
SW-620 colon = test system: SW-620 colon
T-47D breast = test system: T-47D breast
TK-10 renal = test system: TK-10 renal
U251 CNS = test system: U251 CNS
UACC-257 melanoma = test system: UACC-257 melanoma
UACC-62 melanoma = test system: UACC-62 melanoma
UO-31 renal = test system: UO-31 renal

CC(=O)O[C@H]1C(=O)[C@@]2(C)[C@H]([C@H](OC(=O)c3ccccc3)[C@]3(O)C[C@H](OC(=O)[C@H](OC(=O)OC[C@@H]4COC(C)(C)O4)[C@@H](NC(=O)c4ccccc4)c4ccccc4)C(C)=C1C3(C)C)[C@]1(OC(C)=O)CO[C@@H]1C[C@@H]2O
> 7.26 µM: TGI (MDA-MB-231 breast)
0.0237 µM: TGI (MDA-MB-435)
0.137 µM: TGI (SNB-75 CNS)
2.21 µM: TGI (SF-539 CNS)
inactive: GI50 (ACHN renal) 1.04 µM | GI50 (HCT-15 colon) 0.552 µM | GI50 (NCI-H226 lung) 0.506 µM | GI50 (NCI/ADR-RES ovarian) > 33.3 µM | GI50 (OVCAR-4 ovarian) > 33.3 µM | GI50 (SK-MEL-28 melanoma) > 33.3 µM | GI50 (SK-OV-3 ovarian) 1.02 µM | GI50 (TK-10 renal) 0.656 µM | GI50 (UACC-257 melanoma) > 7.38 µM | GI50 (UO-31 renal) 1.79 µM
0.279 µM: TGI (RXF 393 renal)
1.16 µM: TGI (HS 578T breast)
active: GI50 (786-0 renal) 0.327 µM | GI50 (A498 renal) 0.0799 µM | GI50 (A549 NSCLC) 0.0488 µM | GI50 (BT-549 breast) 0.12 µM | GI50 (CAKI-1 renal) 0.182 µM | GI50 (CCRF-CEM leukemia) 0.0402 µM | GI50 (COLO 205 colon) 0.0292 µM | GI50 (DU-145 prostate) 0.0424 µM | GI50 (EKVX NSCLC) 0.19 µM | GI50 (HCC-2998 colon) 0.0969 µM | GI50 (HCT-116 colon) 0.0112 µM | GI50 (HL-60(TB) leukemia) 0.0241 µM | GI50 (HOP-62 NSCLC) 0.119 µM | GI50 (HOP-92 NSCLC) 0.0532 µM | GI50 (HS 578T breast) 0.0256 µM | GI50 (HT29 colon) 0.0104 µM | GI50 (IGROV1 ovarian) 0.062 µM | GI50 (K-562 leukemia) 0.0176 µM | GI50 (KM12 colon) 0.0196 µM | GI50 (LOX IMVI melanoma) 0.0188 µM | GI50 (M14 melanoma) 0.0268 µM | GI50 (MCF7 breast) 0.00971 µM | GI50 (MDA-MB-231 breast) 0.143 µM | GI50 (MDA-MB-435) 0.00481 µM | GI50 (MOLT-4 leukemia) 0.0571 µM | GI50 (NCI-H23 lung) 0.0726 µM | GI50 (NCI-H460 lung) 0.00774 µM | GI50 (NCI-H522 lung) 0.0375 µM | GI50 (OVCAR-3 ovarian) 0.0183 µM | GI50 (OVCAR-5 ovarian) 0.0603 µM | GI50 (OVCAR-8 ovarian) 0.0857 µM | GI50 (PC-3 prostate) 0.0451 µM | GI50 (RPMI-8226 leukemia) 0.00935 µM | GI50 (RXF 393 renal) 0.0454 µM | GI50 (SF-268 CNS) 0.251 µM | GI50 (SF-295 CNS) 0.0598 µM | GI50 (SF-539 CNS) 0.0715 µM | GI50 (SK-MEL-2 melanoma) 0.175 µM | GI50 (SK-MEL-5 melanoma) 0.147 µM | GI50 (SN12C renal) 0.06 µM | GI50 (SNB-19 CNS) 0.0923 µM | GI50 (SNB-75 CNS) 0.00411 µM | GI50 (SR leukemia) 0.0312 µM | GI50 (SW-620 colon) 0.0213 µM | GI50 (T-47D breast) 0.0631 µM | GI50 (U251 CNS) 0.0409 µM | GI50 (UACC-62 melanoma) 0.0587 µM
> 33.3 µM: TGI (786-0 renal) | TGI (A549 NSCLC) | TGI (ACHN renal) | TGI (BT-549 breast) | TGI (CAKI-1 renal) | TGI (CCRF-CEM leukemia) | TGI (COLO 205 colon) | TGI (DU-145 prostate) | TGI (EKVX NSCLC) | TGI (HCC-2998 colon) | TGI (HCT-116 colon) | TGI (HCT-15 colon) | TGI (HL-60(TB) leukemia) | TGI (HOP-62 NSCLC) | TGI (HOP-92 NSCLC) | TGI (HT29 colon) | TGI (IGROV1 ovarian) | TGI (K-562 leukemia) | TGI (KM12 colon) | TGI (LOX IMVI melanoma) | TGI (MCF7 breast) | TGI (MOLT-4 leukemia) | TGI (NCI-H226 lung) | TGI (NCI-H23 lung) | TGI (NCI-H460 lung) | TGI (NCI-H522 lung) | TGI (NCI/ADR-RES ovarian) | TGI (OVCAR-4 ovarian) | TGI (OVCAR-5 ovarian) | TGI (OVCAR-8 ovarian) | TGI (PC-3 prostate) | TGI (RPMI-8226 leukemia) | TGI (SF-268 CNS) | TGI (SK-MEL-2 melanoma) | TGI (SK-MEL-28 melanoma) | TGI (SK-MEL-5 melanoma) | TGI (SK-OV-3 ovarian) | TGI (SN12C renal) | TGI (SNB-19 CNS) | TGI (SR leukemia) | TGI (SW-620 colon) | TGI (T-47D breast) | TGI (TK-10 renal) | TGI (U251 CNS) | TGI (UACC-257 melanoma) | TGI (UACC-62 melanoma) | TGI (UO-31 renal)
0.758 µM: TGI (A498 renal)
0.233 µM: TGI (M14 melanoma)
0.574 µM: TGI (SF-295 CNS)

Cc1nc2ccccn2c1NC(=O)NNC(=S)Nc1ccc(Cl)cc1
> 100 µM: TGI (786-0 renal) | TGI (A498 renal) | TGI (A549 NSCLC) | TGI (ACHN renal) | TGI (BT-549 breast) | TGI (CAKI-1 renal) | TGI (CCRF-CEM leukemia) | TGI (COLO 205 colon) | TGI (DU-145 prostate) | TGI (EKVX NSCLC) | TGI (HCC-2998 colon) | TGI (HCT-116 colon) | TGI (HCT-15 colon) | TGI (HL-60(TB) leukemia) | TGI (HOP-62 NSCLC) | TGI (HOP-92 NSCLC) | TGI (HS 578T breast) | TGI (HT29 colon) | TGI (IGROV1 ovarian) | TGI (K-562 leukemia) | TGI (KM12 colon) | TGI (LOX IMVI melanoma) | TGI (M14 melanoma) | TGI (MCF7 breast) | TGI (MDA-MB-231 breast) | TGI (MDA-MB-435) | TGI (MOLT-4 leukemia) | TGI (NCI-H226 lung) | TGI (NCI-H460 lung) | TGI (NCI-H522 lung) | TGI (NCI/ADR-RES ovarian) | TGI (OVCAR-3 ovarian) | TGI (OVCAR-4 ovarian) | TGI (OVCAR-5 ovarian) | TGI (OVCAR-8 ovarian) | TGI (PC-3 prostate) | TGI (RPMI-8226 leukemia) | TGI (RXF 393 renal) | TGI (SF-268 CNS) | TGI (SF-295 CNS) | TGI (SF-539 CNS) | TGI (SK-MEL-2 melanoma) | TGI (SK-MEL-28 melanoma) | TGI (SK-MEL-5 melanoma) | TGI (SK-OV-3 ovarian) | TGI (SN12C renal) | TGI (SNB-19 CNS) | TGI (SNB-75 CNS) | TGI (SR leukemia) | TGI (SW-620 colon) | TGI (T-47D breast) | TGI (TK-10 renal) | TGI (U251 CNS) | TGI (UACC-257 melanoma) | TGI (UACC-62 melanoma) | TGI (UO-31 renal)
inactive: GI50 (786-0 renal) > 100 µM | GI50 (A498 renal) > 100 µM | GI50 (A549 NSCLC) > 100 µM | GI50 (ACHN renal) > 100 µM | GI50 (BT-549 breast) > 100 µM | GI50 (CAKI-1 renal) > 100 µM | GI50 (CCRF-CEM leukemia) > 100 µM | GI50 (COLO 205 colon) > 100 µM | GI50 (DU-145 prostate) > 100 µM | GI50 (EKVX NSCLC) > 100 µM | GI50 (HCC-2998 colon) > 100 µM | GI50 (HCT-116 colon) > 100 µM | GI50 (HCT-15 colon) > 100 µM | GI50 (HL-60(TB) leukemia) > 100 µM | GI50 (HOP-62 NSCLC) > 100 µM | GI50 (HOP-92 NSCLC) > 100 µM | GI50 (HS 578T breast) > 100 µM | GI50 (HT29 colon) > 100 µM | GI50 (IGROV1 ovarian) > 100 µM | GI50 (K-562 leukemia) > 100 µM | GI50 (KM12 colon) > 100 µM | GI50 (LOX IMVI melanoma) > 100 µM | GI50 (M14 melanoma) > 100 µM | GI50 (MCF7 breast) > 100 µM | GI50 (MDA-MB-231 breast) 67.8 µM | GI50 (MDA-MB-435) > 100 µM | GI50 (MOLT-4 leukemia) > 100 µM | GI50 (NCI-H226 lung) > 100 µM | GI50 (NCI-H460 lung) > 100 µM | GI50 (NCI-H522 lung) > 100 µM | GI50 (NCI/ADR-RES ovarian) > 100 µM | GI50 (OVCAR-3 ovarian) > 100 µM | GI50 (OVCAR-4 ovarian) > 100 µM | GI50 (OVCAR-5 ovarian) > 100 µM | GI50 (OVCAR-8 ovarian) > 100 µM | GI50 (PC-3 prostate) > 100 µM | GI50 (RPMI-8226 leukemia) > 100 µM | GI50 (RXF 393 renal) > 100 µM | GI50 (SF-268 CNS) > 100 µM | GI50 (SF-295 CNS) > 100 µM | GI50 (SF-539 CNS) > 100 µM | GI50 (SK-MEL-2 melanoma) > 100 µM | GI50 (SK-MEL-28 melanoma) > 100 µM | GI50 (SK-MEL-5 melanoma) > 100 µM | GI50 (SK-OV-3 ovarian) > 100 µM | GI50 (SN12C renal) > 100 µM | GI50 (SNB-19 CNS) > 100 µM | GI50 (SNB-75 CNS) > 100 µM | GI50 (SR leukemia) 95.7 µM | GI50 (SW-620 colon) > 100 µM | GI50 (T-47D breast) > 100 µM | GI50 (TK-10 renal) > 100 µM | GI50 (U251 CNS) > 100 µM | GI50 (UACC-257 melanoma) > 100 µM | GI50 (UACC-62 melanoma) > 100 µM | GI50 (UO-31 renal) > 100 µM
